What is called IC50 is the midpoint of a concentration-inhibition curve.

Experimental findings from EP4782453A1 (Beyang Therapeutics Co., Ltd., priority 2023, dated 2025) are described below.

Experiment [1] concerns KG-1a (wild-type MLL). Nature of the experiment: Inhibition of proliferation of human tumor cells (Alamar Blue, 7 days), KG-1a control cell line. The experiment is classed as cell-based. Conditions: 168 h, KG-1a cells (wild-type MLL, control cell line), method calls the value GI50. The source says: Experimental Example 2: Evaluation of Inhibitory Activity of Compounds Against Proliferation of Human Tumor Cells
• Human acute lymphoblastic leukemia cells MV-4-11, purchased from American Type Culture Collection, Catalog Number: CRL-9591; • Human acute myeloid leukemia cells MOLM-13, purchased from COBIOER BIOSCIENCES CO., LTD, Catalog Number: CBP60678; • Human acute myeloid leukemia cells KG-1a, purchased from American Type Culture Collection, Catalog Number: CCL-246.1; • Inverted Microscope, purchased from Olympus Tokyo; • Countess™ Automated Cell Counter, purchased from Invitrogen, Model: C10281; and • Multilabel Reader, purchased from Bio-Tek, Model: Synergy HT.
MV-4-11 cells were cultured in an IMDM medium containing 10% fetal bovine serum, KG-a cells were cultured in an IMDM medium containing 20% fetal bovine serum, or MOLM-13 cells were cultured in an RPMI-1640 medium containing 20% fetal bovine serum, each supplemented with 100 U·mL^-1 penicillin and 100 µg·mL^-1 streptomycin. These cells were cultured at 37°C with 5% CO2. The suspensions of individual cell lines were prepared in their respective media and seeded into 96-well plates at a density of 4,000 cells/well for MV-4-11 and MOLM-13 cells, or 3,000 cells/well for KG-1a cells. On the day of the experiment, a compound stock solution was diluted in a 3-fold or 4-fold gradient using DMSO. Each gradient-diluted stock solution was then further diluted 250-fold with a complete medium to prepare a series of working solutions at different concentrations. Subsequently, 100 µL of working solution (containing a 2-fold concentration series of the test compound) was added to each well, with duplicate wells set up for each concentration.
Seven days after compound addition (on Day 7), an Alamar Blue assay reagent (MCE, HY-111391 / CS-0040317) was added to measure the fluorescence intensity in each well. Wells containing the cells in the growth medium supplemented with 0.1% DMSO (Day 7) served as high-read control wells. The readouts from the wells containing the cells in the growth medium supplemented with 0.1% DMSO on the day of compound addition (Day 0) served as low-reading control well. GraphPad Prism software was used to calculate the concentration required to inhibit 50% of cell proliferation (GI50), which serves as a cell proliferation inhibition activity index.
(In general: Resazurin is reduced to fluorescent resorufin, in cell work by metabolically active cells.)

Experiment [2] concerns the target T1, Menin-MLL (Homo sapiens, UniProt O00255).
T1 construct: His-Menin (M1-L615 end); purchased BIORTUS BP9210
T1 sequence (O00255 1-615 isoform O00255-1): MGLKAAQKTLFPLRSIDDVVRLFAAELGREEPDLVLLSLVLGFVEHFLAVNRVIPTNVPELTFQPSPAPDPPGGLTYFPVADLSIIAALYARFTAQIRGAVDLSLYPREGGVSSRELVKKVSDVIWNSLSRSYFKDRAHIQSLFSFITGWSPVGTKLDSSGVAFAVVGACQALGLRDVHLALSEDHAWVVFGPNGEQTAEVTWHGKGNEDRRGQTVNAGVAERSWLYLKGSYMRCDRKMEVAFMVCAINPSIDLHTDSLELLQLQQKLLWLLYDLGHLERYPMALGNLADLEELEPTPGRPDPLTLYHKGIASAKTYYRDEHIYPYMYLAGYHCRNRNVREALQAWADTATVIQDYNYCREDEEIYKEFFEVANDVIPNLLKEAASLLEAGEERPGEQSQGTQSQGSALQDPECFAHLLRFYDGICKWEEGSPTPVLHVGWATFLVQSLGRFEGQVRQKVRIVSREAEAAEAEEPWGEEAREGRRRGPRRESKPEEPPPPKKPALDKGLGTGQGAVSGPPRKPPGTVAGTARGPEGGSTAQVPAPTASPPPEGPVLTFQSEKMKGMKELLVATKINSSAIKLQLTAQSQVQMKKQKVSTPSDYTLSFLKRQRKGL
Description: Inhibitory activity against Menin-MLL binding (fluorescence polarization). The following applies: 150 nM His-Menin, 15 nM FITC-MLL, 25°C for 60 min. The essentials:
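Fluorescence polarization competition: compound and 150 nM His-tagged menin (residues M1-L615) sit 15 min at 25 °C in pH 7.5 HEPES buffer with NaCl, DTT and BSA; 15 nM FITC-labelled MLL peptide then binds for 60 min. IC50 fitted sigmoidally from mP values, duplicate wells.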
In general terms: Fluorescence polarisation rises when a labelled molecule tumbles more slowly, as on binding a larger partner.

The test system of experiment [3] is MV-4-11 (carrying MLL-AF4). Nature of the experiment: Inhibition of proliferation of human tumor cells (Alamar Blue, 7 days), MV-4-11. The experiment is classed as cell-based. Conditions: Homo sapiens, MV4-11, 168 h, MV-4-11 cells (carrying MLL-AF4), method calls the value GI50. The essentials:
(§1)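 GI50 from Alamar Blue fluorescence after 7-day compound exposure, duplicate wells, using Day-0 and Day-7 0.1% DMSO wells as low and high controls. MV-4-11 in IMDM/10% FBS and MOLM-13 in RPMI-1640/20% FBS at 4,000 cells/well; KG-1a in IMDM/20% FBS at 3,000 cells/well.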

Experiment [4] deals with MOLM-13 (carrying MLL-AF9). Nature of the experiment: Inhibition of proliferation of human tumor cells (Alamar Blue, 7 days), MOLM-13. Format: cell-based. The following applies: Homo sapiens, MOLM-13 cells (carrying MLL-AF9), method calls the value GI50. The essentials:
as §1

Setting [5] is: Menin-MLL IC50, fluorescence polarization.
Where [6] appears, read: fluorescence polarization, read-out: Menin-MLL IC50.

Read-outs that look alike come from different tables or passages of the source.

Regarding `CCN(C(=O)c1cc(F)ccc1-c1cc(C2(F)CCN(C[C@H]3CC[C@H](NS(=O)(=O)CC)CC3)C2)cn2c(C)ncc12)C(C)C` (stereo partly drawn) [Example 73, N-ethyl-5-fluoro-2-[6-(3-fluoro-1-{[(1r,4r)-4-ethanesulfonamidocyclohexyl]methyl}pyrrolidin-3-yl)-3-methylimidazo[1,5-a]pyridin-8-yl]-N-(isopropyl) benzamide], the results for the IC50 in experiment [1], in experiment [2] (setting [5]) and in experiment [3] were 20000 nM, 28 nM and 61 nM, respectively.

With `CCN(C(=O)c1cc(F)ccc1-c1cc(C2CN([C@H](CCCO)C(C)C)C2)cn2c(C)ncc12)C(C)C` [Example 396, N-ethyl-5-fluoro-2-(6-{1-[(3R)-6-hydroxyl-2-methylhexan-3-yl]azacyclobutan-3-yl}-3-methylimidazo[1,5-a]pyridin-8-yl)-N-(isopropyl)benzamide], the values for the IC50 in experiment [1], in experiment [4] (168 h) and in experiment [2] (setting [6]) were greater than 20000 nM, 22 nM and 3 nM, respectively.

Take `CCN(C(=O)c1cc(F)ccc1-c1cc(C2CN([C@H](CN3CCN(C)CC3)C(C)C)C2)cc2c1cnn2C)C(C)C` [Example 402-2, N-ethyl-5-fluoro-2-(1-methyl-6-{1-[(2S)-3-methyl-1-(4-methylpiperazin-1-yl)butan-2-yl]azacyclobutan-3-yl}-1H-indazol-4-yl)-N-(isopropyl)benzamide]: the IC50 in experiment [1] came out at 11000 nM; in experiment [4] (168 h), 65 nM; in experiment [2] (setting [6]), 10 nM.

For `CCN(C(=O)c1cc(F)ccc1-c1cc([C@@H]2CCN(C[C@H]3CC[C@H](NS(=O)(=O)CC)CC3)C2)cn2cncc12)C(C)C` [Example 22-2], the figures for the IC50 in experiment [1], in experiment [2] (setting [5]) and in experiment [3] were 20000 nM, 14 nM and 22 nM, respectively.

Regarding `CCN(C(=O)c1cc(F)ccc1-c1cc(C2CN([C@H](CN3CCN(C)CC3)C(C)C)C2)cn2c(C)ncc12)C(C)C` [Example 403-1, N-ethyl-5-fluoro-2-(3-methyl-6-{1-[(2S)-3-methyl-1-(4-methylpiperazin-1-yl)butan-2-yl]azacyclobutan-3-yl}imidazo[1,5-a]pyridin-8-yl)-N-(isopropyl)benzamide], the IC50 stood at 15000 nM in experiment [1], 7.7 nM in experiment [4] (168 h) and 3.9 nM in experiment [2] (setting [6]).

As to `CCN(C(=O)c1cc(F)ccc1-c1cc(C2=CCC(NCc3ccc4oc(=O)[nH]c4c3)CC2)cn2cncc12)C(C)C` (stereo not drawn) [Example 16, N-ethyl-5-fluoro-2-[6-(4-{[(2-oxo-2,3-dihydro-l,3-benzoxazol-5-yl)methyl]amino}cyclohexyl-1-ene-1-yl)imidazo[1,5-a]pyridin-8-yl]-N-isopropylbenzamide], the IC50 is 20000 nM in experiment [1]; 14.5 nM in experiment [2] (read-out: Menin-MLL IC50, fluorescence polarization); 14 nM in experiment [3].

Consider `CCN(C(=O)c1cc(F)ccc1-c1cc([C@H]2CCN(C[C@H]3CC[C@H](NS(=O)(=O)CC)CC3)C2)cn2cncc12)C(C)C` [Example 22-1, N-ethyl-5-fluoro-N-isopropyl-2-{6-[(3R)-1-{[(1r,4r)-4-ethanesulfonamidocyclohexyl]methyl}pyrrolidin-3-yl]imidazo[1,5-a]pyridin-8-yl}benzamide], for which the IC50 in experiment [1] was determined as 20000 nM; in experiment [2] (setting [5]), 23 nM; in experiment [3], 79 nM.

Turning to `CCN(C(=O)c1cc(F)ccc1-c1cc(N2CCC(NCc3ccc(-c4cc(OC)c(OC)nn4)cc3F)CC2)cn2cncc12)C(C)C` [Example 20], the IC50 in experiment [1] came out at 20000 nM; in experiment [2] (setting [6]), 45 nM; in experiment [3], 54 nM.

Regarding `Cc1nc(F)c2c(-c3ccc(F)cc3C(=O)N3CCOC[C@H]3C)cc(C3CN([C@H](CCCN4CCn5nccc5C4)C(C)C)C3)cn12` [Example 351, (3R)-4-[5-fluoro-2-(1-fluoro-3-methyl-6-{1-[(3R)-2-methyl-6-{4H,5H,6H,7H-pyrazolo[1,5-a]pyrazin-5-yl}hexan-3-yl]azacyclobutan-3-yl}imidazo[1,5-a]pyridin-8-yl)benzoyl]-3-methylmorpholine], the results for the IC50 in experiment [1], in experiment [4] (168 h) and in experiment [2] (setting [6]) were greater than 20000 nM, 44 nM and 12.5 nM, respectively.

As for `CCN(C(=O)c1cc(F)ccc1-c1cc(C2CN([C@H](CCCN3CCC(OC)CC3)C(C)C)C2)cn2c(C)ncc12)C(C)C` [Example 389, N-ethyl-5-fluoro-2-(6-{1-[(3R)-6-(4-methoxypiperidin-1-yl)-2-methylhexan-3-yl]azacyclobutan-3-yl}-3-methylimidazo[1,5-a]pyridin-8-yl)-N-(isopropyl)benzamide], the IC50 in experiment [1] was determined as 12000 nM; in experiment [4] (168 h) it was 5.3 nM; in experiment [2] (setting [6]), 1.9 nM.

Consider `CC(C)[C@@H](CCCN1CCN(C)CC1)N1CC(c2cc(-c3ccc(F)cc3C(=O)N3CCOC[C@H]3C)c3cnn(C)c3c2)C1` [Example 358], for which the IC50 in experiment [1] is greater than 20000 nM; in experiment [4] (MOLM-13, 168 h) it was 91 nM; in experiment [2] (setting [5]) it was 13.5 nM.

For `Cc1nc(F)c2c(-c3ccc(F)cc3C(=O)N3[C@H](C)COC[C@H]3C)cc(C3CN(CC4CCN(C(=O)CC(C)C)CC4)C3)cn12` [Example 218], the figures for the IC50 in experiment [4] (168 h), in experiment [2] (setting [6]) and in experiment [3] were 11 nM, 13 nM and 6 nM, respectively.

Regarding `Cc1nc(F)c2c(-c3ccc(F)cc3C(=O)N3[C@H](C)COC[C@H]3C)cc(C3CN(C[C@H]4CC[C@H](n5cncn5)CC4)C3)cn12` [Example 213, (3R,5R)-4-{5-fluoro-2-[1-fluoro-3-methyl-6-(1-{[(1r,4r)-4-(1H-1,2,4-triazol-1-yl)cyclohexyl]methyl}azacyclobutan-3-yl)imidazo[1,5-a]pyridin-8yl]benzoyl}-3,5-dimethylmorpholine], the IC50 in experiment [4] (MOLM-13, 168 h) came to 29 nM; in experiment [2] (setting [5]), 11 nM; in experiment [3], 13 nM.

For the compound `Cc1nc(F)c2c(-c3ccc(F)cc3C(=O)N3CCOC[C@H]3C)cc(C3CN([C@@H](CC[C@H]4CNCCO4)C(C)C)C3)cn12` [Example 244-2, (3R)-4-[5-fluoro-2-(1-fluoro-3-methyl-6-{1-[(3S)-4-methyl-1-[(2S)-morpholin-2-yl]pentan-3-yl]azacyclobutan-3-yl}imidazo[1,5-a]pyridin-8yl)benzoyl]-3-methylmorpholine], the IC50 in experiment [4] (168 h) amounted to 130 nM; in experiment [2] (setting [6]) it was 34 nM; in experiment [3], 54 nM.

Turning to `COCCC(=O)N1CCC(CN2CC(c3cc(-c4ccc(F)cc4C(=O)N4[C@H](C)COC[C@H]4C)c4c(F)nc(C)n4c3)C2)CC1` [Example 223], the IC50 in experiment [4] (168 h) is 19 nM; in experiment [2] (setting [6]), 15 nM; in experiment [3], 8.1 nM.
